Assay results: PubChem BioAssay (NCI)
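Growth conditions: 96-well plates. Treatment: test compound, 48 hours, 5 concentrations. Analysis: linear interpolation between bracketing concentrations; unreached endpoints set to highest concentration. At the TGI there is no net growth.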 Where a SMILES comes first, the peptide text is derived from it. [ ]: non-standard residue; d: D form. ΔPro = O=C(O)[CH]1C=CCN1

How the values were obtained:
Experiment in all cases: DTP human tumour cell line panel, 48 h
NCI-H460 lung = system: NCI-H460 lung
IGROV1 ovarian = system: IGROV1 ovarian
K-562 leukemia = system: K-562 leukemia
COLO 205 colon = system: COLO 205 colon
A498 renal = system: A498 renal
MDA-N = system: MDA-N
HS 578T breast = system: HS 578T breast
MDA-MB-231 breast = system: MDA-MB-231 breast
SK-MEL-5 melanoma = system: SK-MEL-5 melanoma
ACHN renal = system: ACHN renal
RPMI-8226 leukemia = system: RPMI-8226 leukemia
M14 melanoma = system: M14 melanoma
MDA-MB-435 = system: MDA-MB-435
HOP-92 NSCLC = system: HOP-92 NSCLC
HCT-116 colon = system: HCT-116 colon
SW-620 colon = system: SW-620 colon
U251 CNS = system: U251 CNS
786-0 renal = system: 786-0 renal

SMILES | TGI (NCI-H460 lung) | TGI (IGROV1 ovarian) | TGI (K-562 leukemia) | TGI (COLO 205 colon) | TGI (A498 renal) | TGI (MDA-N) | TGI (HS 578T breast) | TGI (MDA-MB-231 breast) | TGI (SK-MEL-5 melanoma) | TGI (ACHN renal) | TGI (RPMI-8226 leukemia) | TGI (M14 melanoma) | TGI (MDA-MB-435) | TGI (HOP-92 NSCLC) | TGI (HCT-116 colon) | TGI (SW-620 colon) | TGI (U251 CNS) | TGI (786-0 renal)
COc1ccc(-c2sc(Br)c3c2C(=O)C2OC(=O)NC32)cc1OC (stereo unspecified) | > 100 µM | > 100 µM | > 100 µM | > 100 µM | > 100 µM | > 100 µM | > 100 µM | > 100 µM | > 100 µM | > 100 µM | > 100 µM | > 100 µM | > 100 µM | > 100 µM | > 100 µM | > 100 µM | > 100 µM | > 100 µM
N#Cc1c(Cl)cc(C#N)n2c1nc1ccccc12 | 35.4 µM | 28.3 µM | 21.1 µM | 15.3 µM | 49.9 µM | 22.7 µM | 83.7 µM | 24 µM | 29.3 µM | 28.7 µM | 17.2 µM | 22.2 µM | 26.2 µM | 16.8 µM | 12.8 µM | 9.1 µM | 36 µM | 7.08 µM
CC1(c2ccccc2)O[C@@H]2C[C@H]3[C@@H]4CCC5=CC(=O)C=C[C@]5(C)[C@@]4(F)[C@@H](O)C[C@]3(C)[C@]2(C(=O)CO)O1 (stereo partly specified) | 29.8 µM | 38.7 µM | 34.4 µM | 27.8 µM | 33.9 µM | 35.3 µM | 45.4 µM | 24.5 µM | 28.2 µM | 34.8 µM | 17.2 µM | 30.6 µM | 33.1 µM | 38.4 µM | 27.8 µM | 47.1 µM | 33.3 µM | 32.2 µM
CN1CCN(c2cc3nc(-c4ccc(Cl)cc4)[nH]c3cc2F)CC1 | > 53.9 µM | 36.1 µM | 28.7 µM | 51.1 µM | 47.4 µM | 50.4 µM | 42.6 µM | 60.8 µM | 35.5 µM | 29.8 µM | 41.4 µM | 8.4 µM | 32.1 µM | > 70.4 µM | > 54.4 µM | > 64.4 µM | > 75.9 µM | 67.2 µM
O=C(O)C1C=CCN1C(=O)C1C=CCN1C(=O)C1C=CCN1 (stereo unspecified) (H-[ΔPro]-[ΔPro]-[ΔPro]-OH; configuration not given here) | > 100 µM | > 100 µM | > 100 µM | > 100 µM | > 100 µM | > 100 µM | > 100 µM | > 100 µM | > 100 µM | > 100 µM | > 100 µM | > 100 µM | > 100 µM | > 100 µM | > 100 µM | > 100 µM | > 100 µM | > 100 µM
c1ccc2sc(SSSc3nc4ccccc4s3)nc2c1 | > 100 µM | > 100 µM | > 100 µM | > 100 µM | > 100 µM | > 100 µM | > 100 µM | > 100 µM | > 100 µM | > 100 µM | > 100 µM | > 100 µM | > 100 µM | > 100 µM | > 100 µM | > 100 µM | > 100 µM | > 100 µM
Cc1cc(N2CCOCC2)nc2ccc(Cc3ccc4nc(N5CCOCC5)cc(C)c4c3)cc12 | > 100 µM | > 100 µM | > 100 µM | 26.8 µM | > 100 µM | > 100 µM | > 100 µM | > 100 µM | 36.6 µM | > 100 µM | > 100 µM | > 100 µM | > 100 µM | > 100 µM | 54.7 µM | > 100 µM | 88.5 µM | > 100 µM
O=c1[nH]c2c(c(=O)[nH]1)SC(c1ccccc1)C2 (stereo unspecified) | > 100 µM | > 100 µM | > 100 µM | > 100 µM | > 100 µM | > 100 µM | > 100 µM | > 100 µM | > 100 µM | > 100 µM | > 100 µM | > 100 µM | > 100 µM | > 100 µM | > 100 µM | > 100 µM | > 100 µM | > 100 µM
C=C(COCO)C(C)=O | 48.2 µM | 35.9 µM | > 27 µM | 20.8 µM | 49 µM | 33.5 µM | 62.7 µM | 33.6 µM | 31.5 µM | 29.2 µM | 5.64 µM | 26.8 µM | 28.3 µM | 48.9 µM | 26.7 µM | 11.1 µM | 47.2 µM | 25.6 µM
CCOC(=O)C1=C(C)N(c2ccc(Cl)cc2)C2(O)C=CC(=O)C3=C(O)c4ccccc4C(=O)C312 (stereo unspecified) | 18.2 µM | 12.9 µM | 18.1 µM | 11.7 µM | 30 µM | 18.2 µM | 23.1 µM | 25 µM | 20.4 µM | 16.4 µM | 4.42 µM | 12.4 µM | 11.3 µM | 8.98 µM | 11.6 µM | 12.7 µM | 15.6 µM | 4.07 µM
O=S1SC(=S)C2C=CC=NC21 (stereo unspecified) | 37.8 µM | 49.6 µM | > 100 µM | 40.3 µM | 66.1 µM | 27.8 µM | 61.4 µM | 42.3 µM | 53.2 µM | 32.4 µM | > 100 µM | 29.6 µM | > 100 µM | 37.6 µM | 26.6 µM | > 100 µM | 35.1 µM | 27.6 µM
CC(C)(C)OC(=O)N(O)[C@@H]1CC[C@H](n2cnc3c(N)ncnc32)C1 | > 100 µM | > 100 µM | > 100 µM | > 100 µM | > 100 µM | > 100 µM | > 100 µM | > 100 µM | > 100 µM | > 100 µM | > 100 µM | > 100 µM | > 100 µM | > 100 µM | > 100 µM | > 100 µM | > 100 µM | > 100 µM
